The supplement of paper PMC11451515

Tested on: NOMO1
Experiment: cell viability relative to DMSO control; higher = less cytotoxic
Conditions: 48 h
In short: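 Viability, reported as a per-plate percentage of DMSO wells with cell-free wells as background, came from CellTiter-Glo One luminescence. Reading took place after 48 h at 37°C. Before that, NOMO1 or SEM (500 cells/well) or P12-Ichikawa (1000 cells/well) leukemia cells, adapted for at least four passages in each medium, were seeded in 1536-well plates (5 μl) and pin-dosed with library compounds in DMSO, 47 μM to 0.79 nM over 11 threefold points.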

[1] = HPLM + 10% dialyzed FBS, 0.000781 µM
[2] = HPLM + 10% dialyzed FBS, 0.00234 µM
[3] = HPLM + 10% dialyzed FBS, 0.00702 µM
[4] = HPLM + 10% dialyzed FBS, 0.0211 µM
[5] = HPLM + 10% dialyzed FBS, 0.0632 µM
[6] = HPLM + 10% dialyzed FBS, 0.19 µM
[7] = HPLM + 10% dialyzed FBS, 0.569 µM
[8] = HPLM + 10% dialyzed FBS, 1.71 µM
[9] = HPLM + 10% dialyzed FBS, 5.12 µM
[10] = HPLM + 10% dialyzed FBS, 15.4 µM
[11] = HPLM + 10% dialyzed FBS, 46.1 µM
[12] = RPMI 5 mM glucose + 10% FBS, 0.000781 µM
[13] = RPMI 5 mM glucose + 10% FBS, 0.00234 µM
[14] = RPMI 5 mM glucose + 10% FBS, 0.00702 µM
[15] = RPMI 5 mM glucose + 10% FBS, 0.0211 µM
[16] = RPMI 5 mM glucose + 10% FBS, 0.0632 µM
[17] = RPMI 5 mM glucose + 10% FBS, 0.19 µM
[18] = RPMI 5 mM glucose + 10% FBS, 0.569 µM
[19] = RPMI 5 mM glucose + 10% FBS, 1.71 µM
[20] = RPMI 5 mM glucose + 10% FBS, 5.12 µM
[21] = RPMI 5 mM glucose + 10% FBS, 15.4 µM
[22] = RPMI 5 mM glucose + 10% FBS, 46.1 µM
[23] = RPMI 5 mM glucose + 10% dialyzed FBS, 0.000781 µM
[24] = RPMI 5 mM glucose + 10% dialyzed FBS, 0.00234 µM
[25] = RPMI 5 mM glucose + 10% dialyzed FBS, 0.00702 µM
[26] = RPMI 5 mM glucose + 10% dialyzed FBS, 0.0211 µM
[27] = RPMI 5 mM glucose + 10% dialyzed FBS, 0.0632 µM
[28] = RPMI 5 mM glucose + 10% dialyzed FBS, 0.19 µM
[29] = RPMI 5 mM glucose + 10% dialyzed FBS, 0.569 µM
[30] = RPMI 5 mM glucose + 10% dialyzed FBS, 1.71 µM
[31] = RPMI 5 mM glucose + 10% dialyzed FBS, 5.12 µM
[32] = RPMI 5 mM glucose + 10% dialyzed FBS, 15.4 µM
[33] = RPMI 5 mM glucose + 10% dialyzed FBS, 46.1 µM

Row | Structure (SMILES) | cell viability [1] | cell viability [2] | cell viability [3] | cell viability [4] | cell viability [5] | cell viability [6] | cell viability [7] | cell viability [8] | cell viability [9] | cell viability [10] | cell viability [11] | cell viability [12] | cell viability [13] | cell viability [14] | cell viability [15] | cell viability [16] | cell viability [17] | cell viability [18] | cell viability [19] | cell viability [20] | cell viability [21] | cell viability [22] | cell viability [23] | cell viability [24] | cell viability [25] | cell viability [26] | cell viability [27] | cell viability [28] | cell viability [29] | cell viability [30] | cell viability [31] | cell viability [32] | cell viability [33]
1 | Cc1nc(-c2ccc(OCC(C)C)c(C#N)c2)sc1C(=O)O | 104% | 123% | 127% | 128% | 142% | 126% | 153% | 137% | 140% | 118% | 138% | 111% | 128% | 119% | 121% | 137% | 129% | 138% | 137% | 117% | 131% | 118% | 120% | 123% | 120% | 116% | 132% | 131% | 122% | 125% | 125% | 125% | 129%
2 | CC(C)(N)c1ccc(-c2nc3ccccc3nc2-c2ccccc2)cc1 | 112% | 118% | 109% | 68.5% | 27.3% | 22.3% | 12.2% | 8.51% | 7.84% | 5.77% | 5.3% | 96.1% | 116% | 112% | 111% | 69.6% | 14.8% | 14.1% | 6.53% | 11.9% | 4.8% | 5.53% | 102% | 106% | 108% | 113% | 78.7% | 20.3% | 27.9% | 13.2% | 19.3% | 6.51% | 8.7%
3 | CCCCc1ccc2[nH]c(NC(=O)OC)nc2c1 | 108% | 103% | 106% | 111% | 95.3% | 37.6% | 31.9% | 33.3% | 42.8% | 37.3% | 47.7% | 102% | 109% | 120% | 110% | 99.8% | 34.2% | 26.1% | 24.4% | 25.8% | 23.8% | 24.2% | 94.2% | 96.6% | 101% | 95.3% | 101% | 37.1% | 29.1% | 27.4% | 31.6% | 34.1% | 31.8%
4 | CCNC(=O)CCC/C=C\C[C@@H]1[C@@H](/C=C/C(O)CCc2ccccc2)[C@@H](O)C[C@@H]1O (stereo partly specified) | 104% | 108% | 106% | 131% | 112% | 130% | 103% | 116% | 105% | 110% | 39.5% | 116% | 118% | 124% | 106% | 108% | 105% | 113% | 120% | 118% | 102% | 38% | 113% | 121% | 106% | 116% | 114% | 105% | 120% | 105% | 118% | 111% | 32.3%
5 | CN1C(=O)/C(=C(NC2=CC=C(I)C=C2F)\C3=C1\N=C/N(C[C@@H](O)CO)C3=O)F | 68.9% | 64.9% | 72.1% | 58.8% | 48.5% | 48.8% | 41.3% | 33.7% | 30.2% | 36.2% | 26.4% | 69.9% | 77.6% | 78.7% | 52.5% | 48% | 45.7% | 31.1% | 34.6% | 30.7% | 37.8% | 32.7% | 69.2% | 60% | 71.1% | 46% | 48.9% | 41.7% | 37.5% | 33.7% | 32.7% | 31.8% | 29.5%
6 | CO[C@@H](C(=O)N1Cc2[nH]nc(NC(=O)c3ccc(N4CCN(C)CC4)cc3)c2C1)c1ccccc1 | 88% | 93.2% | 102% | 94.2% | 72.2% | 62.2% | 58.6% | 53.3% | 54.1% | 66.8% | 71.7% | 80.4% | 79.4% | 79.7% | 83.2% | 81.5% | 64.4% | 51.5% | 50.9% | 55.8% | 53.4% | 56.3% | 83.7% | 87.2% | 88.5% | 88.7% | 71.9% | 52.5% | 59.3% | 47.4% | 48.9% | 55.3% | 54.3%
7 | CC(C)C1CCC(C(=O)N[C@H](Cc2ccccc2)C(=O)O)CC1 (stereo partly specified) | 87.3% | 100% | 75.4% | 90.4% | 89.9% | 84.5% | 81.4% | 88.6% | 78% | 76.4% | 91.4% | 93.5% | 88.5% | 91.8% | 89.7% | 92.2% | 91.6% | 85.1% | 80.7% | 84.2% | 81.4% | 84.6% | 92.2% | 96.9% | 98.9% | 94.4% | 92% | 94.8% | 100% | 82.6% | 101% | 82.8% | 92.3%
8 | CN1C(=O)c2sccc2N(C)c2nc(Nc3ccc([S+](N)(=O)[O-])cc3)ncc21 | 113% | 100% | 115% | 104% | 97% | 117% | 105% | 73.4% | 60.5% | 28.5% | 8.75% | 97.2% | 93.2% | 98.4% | 104% | 106% | 90.4% | 90% | 92.9% | 55.3% | 36.4% | 7.28% | 97.8% | 94.7% | 109% | 99.3% | 99% | 95.1% | 98.2% | 70.8% | 53.5% | 33.2% | 4.45%
9 | CCCN[C@H]1CCc2nc(N)sc2C1 | 105% | 102% | 104% | 116% | 95.4% | 102% | 119% | 112% | 123% | 118% | 114% | 86.8% | 84.8% | 96.6% | 89.3% | 92.6% | 90.6% | 85.3% | 96.2% | 96.7% | 90.5% | 89.3% | 83.9% | 93.1% | 104% | 98.8% | 106% | 102% | 101% | 107% | 87.1% | 109% | 82.4%
10 | COc1c(Cl)cc2c([nH]c3cnccc32)c1NC(=O)c1cccnc1C | 115% | 100% | 110% | 105% | 123% | 124% | 122% | 115% | 108% | 102% | 89.4% | 99.8% | 102% | 98.4% | 101% | 101% | 108% | 111% | 108% | 98.2% | 102% | 99% | 84% | 105% | 103% | 96.1% | 98.9% | 105% | 115% | 116% | 98.2% | 104% | 101%
11 | COc1cc(C(=O)NC2CCN(C)CC2)ccc1Nc1ncc2c(n1)N(C1CCCC1)CCC(=O)N2C(C)C | 103% | 121% | 110% | 122% | 118% | 112% | 115% | 113% | 115% | 58.3% | 9.06% | 99.3% | 105% | 101% | 108% | 102% | 118% | 102% | 107% | 119% | 75.7% | 15.2% | 92.7% | 113% | 100% | 110% | 100% | 106% | 104% | 117% | 109% | 105% | 20.6%
12 | CCC(CCCC)COC(=O)C(\C#N)=C(\c1ccccc1)c2ccccc2 (stereo unspecified) | 76.5% | 102% | 84% | 117% | 101% | 101% | 98.5% | 92.8% | 107% | 98.5% | 107% | 92.6% | 91.8% | 86.2% | 101% | 101% | 93% | 92.5% | 104% | 97.8% | 109% | 105% | 87.4% | 85.8% | 84.4% | 94.6% | 94% | 91.7% | 90.4% | 91.5% | 89.1% | 87.2% | 96.2%
13 | Cc1cc(Nc2cc(N3CCN(C)CC3)nc(/C=C/c3ccccc3)n2)n[nH]1 | 111% | 122% | 117% | 122% | 135% | 114% | 130% | 53.7% | 14.8% | 5.4% | 5.88% | 106% | 98.4% | 110% | 112% | 115% | 123% | 100% | 47.6% | 13.3% | 4.18% | 3.81% | 108% | 104% | 111% | 104% | 110% | 114% | 105% | 56.3% | 24.2% | 7.24% | 5%
14 | Clc2cccc(Cl)c2\N=C1/NCCN1 | 117% | 101% | 118% | 105% | 125% | 135% | 121% | 118% | 132% | 128% | 122% | 102% | 113% | 124% | 120% | 112% | 118% | 113% | 124% | 105% | 116% | 111% | 105% | 130% | 109% | 123% | 122% | 121% | 123% | 137% | 120% | 114% | 115%
15 | CC(C)(N)C(=O)N[C@H](COCc1ccccc1)C(=O)N1CCC2(CC1)CN([S+](C)(=O)[O-])c1ccccc12 |  |  |  |  |  |  |  |  |  |  |  | 117% | 122% | 132% | 124% | 123% | 123% | 122% | 115% | 113% | 109% | 110% |  |  |  |  |  |  |  |  |  |  | 
16 | C[C@]12CC[C@H]3[C@@H](CC(=C)\C4=C\C(=O)\C=C/[C@]34C)[C@@H]1CCC2=O | 111% | 105% | 92.2% | 107% | 105% | 99.1% | 99.1% | 113% | 119% | 99.6% | 52.8% | 99.5% | 89.3% | 95.8% | 90.4% | 92.6% | 92.1% | 97.8% | 90.6% | 81.6% | 80.3% | 74.9% | 75.8% | 100% | 99.7% | 108% | 98.3% | 91.6% | 94.4% | 102% | 92.5% | 86.4% | 61.8%
